The values below come from article PMC7721636 (Metabolic Engineering Communications, 2020).

Structures are written as SMILES.

This experiment deals with T1, Prk (Synechocystis sp. PCC 6803, UniProt P37101).
T1 sequence (P37101 1-332): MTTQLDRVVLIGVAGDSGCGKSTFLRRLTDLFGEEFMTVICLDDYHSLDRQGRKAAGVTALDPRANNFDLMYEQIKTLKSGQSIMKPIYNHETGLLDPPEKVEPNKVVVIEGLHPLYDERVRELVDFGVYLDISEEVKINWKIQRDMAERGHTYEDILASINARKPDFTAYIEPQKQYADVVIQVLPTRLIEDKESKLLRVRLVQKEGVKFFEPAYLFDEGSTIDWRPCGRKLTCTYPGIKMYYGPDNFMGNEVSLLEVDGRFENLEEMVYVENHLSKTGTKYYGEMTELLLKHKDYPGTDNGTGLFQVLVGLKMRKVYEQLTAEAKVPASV
The experiment in a line: coupled pyruvate kinase/lactate dehydrogenase assay, NADH at […] nm. The class given is biochemical.

As for `O=C(O)C[C@H](C(=O)O)[C@@H](O)C(=O)O` [isocitrate], affinity was put at a Ki of 1450 ± 130 µM.
